Experiment [1] deals with Colletotrichum lindemuthianum. Briefly: Colletotrichum lindemuthianum in vitro cell test. The format is cell-based. As to conditions: 144 h, 20 ppm of active ingredient, liquid culture, 6 days incubation, absorbance, read-out: efficacy (inhibition of fungal growth). As for the experimental part: (§1) [table] Fungicides were solubilized in DMSO and the solution used to prepare the required range of concentrations. The final concentration of DMSO used in the assay was ≤1%. A spore suspension of C. lindemuthianum was prepared and diluted to the desired spore density. Fungicides were evaluated for their ability to inhibit spores germination and mycelium growth in liquid culture assay. The compounds were added in the desired concentration to the culture medium with spores. After 6 days incubation, fungi-toxicity of compounds was determined by spectrometric measurement of mycelium growth. Inhibition of fungal growth was determined by comparing the absorbance values in wells containing the fungicides with the absorbance in control wells without fungicides.

Experiment [2] relates to Botrytis cinerea. Briefly: In vivo preventive test on Botrytis cinerea (grey mould). As to conditions: 500 ppm of active ingredient, preventive spray on gherkin or cabbage, evaluated 4 to 5 days after inoculation, 100% = no disease, read-out: efficacy. As for the experimental part: (§2) The active ingredients were made soluble and homogenized in a mixture of Dimethyl sulfoxide/Acetone/Tween® 80 and then diluted in water to the desired concentration.
The young plants of gherkin or cabbage were treated by spraying the active ingredient prepared as described above. Control plants were treated only with an aqueous solution of Acetone/Dimethyl sulfoxide/Tween® 80.
After 24 hours, the plants were contaminated by spraying the leaves with an aqueous suspension of Botrytis cinerea spores. The contaminated gherkin plants were incubated for 4 to 5 days at 17° C. and at 90% relative humidity. The contaminated cabbage plants were incubated for 4 to 5 days at 20° C. and at 100% relative humidity.
The test was evaluated 4 to 5 days after the inoculation. 0% means an efficacy which corresponds to that of the control plants while an efficacy of 100% means that no disease was observed.

The subject of experiment [3] is Pyrenophora teres. In words: In vivo preventive test on Pyrenophora teres (net blotch on barley). Conditions: 240 h, 500 ppm of active ingredient, preventive spray on barley, evaluated 10 days after inoculation, 100% = no disease, read-out: efficacy. As for the experimental part: as §2
The young plants of barley were treated by spraying the active ingredient prepared as described above. Control plants were treated only with an aqueous solution of Acetone/Dimethyl sulfoxide/Tween® 80.
After 24 hours, the plants were contaminated by spraying the leaves with an aqueous suspension of Pyrenophora teres spores. The contaminated barley plants were incubated for 48 hours at 20° C. and at 100% relative humidity and then for 8 days at 20° C. and at 70-80% relative humidity.
The test was evaluated 10 days after the inoculation. 0% means an efficacy which corresponds to that of the control plants while an efficacy of 100% means that no disease was observed.

The test system of experiment [4] is Alternaria alternata. In words: Alternaria alternata in vitro cell test. It is filed as cell-based. As to conditions: 120 h, 20 ppm of active ingredient, liquid culture, 5 days incubation, absorbance, read-out: efficacy (inhibition of fungal growth). The method, then:
as §1, with “was <1%.” for “was ≤1%.”, “of A. alternata” for “of C. lindemuthianum”, “inhibit spore” for “inhibit spores”, “After 5” for “After 6”

The subject of experiment [5] is Sphaerotheca fuliginea. Briefly: In vivo preventive test on Sphaerotheca fuliginea (powdery mildew on cucurbits). As to conditions: Podosphaera fuliginea, 192 h; 500 ppm of active ingredient; preventive spray on gherkin; evaluated 8 days after inoculation; 100% = no disease; read-out: efficacy. As for the experimental part: as §2
The young plants of gherkin were treated by spraying the active ingredient prepared as described above. Control plants were treated only with an aqueous solution of Acetone/Dimethyl sulfoxide/Tween® 80.
After 24 hours, the plants were contaminated by spraying the leaves with an aqueous suspension of Sphaerotheca fuliginea spores. The contaminated gherkin plants were incubated for 8 days at 20° C. and at 70-80% relative humidity.
The test was evaluated 8 days after the inoculation. 0% means an efficacy which corresponds to that of the control plants while an efficacy of 100% means that no disease was observed.

For experiment [6], the system named is Alternaria brassicae. In words: In vivo preventive test on Alternaria brassicae (leaf spot on radish or cabbage). As to conditions: 144 h, 500 ppm of active ingredient, preventive spray on radish or cabbage, evaluated 6 days after inoculation, 100% = no disease, read-out: efficacy. The method, then:
as §2
The young plants of radish or cabbage were treated by spraying the active ingredient prepared as described above. Control plants were treated only with an aqueous solution of Acetone/Dimethyl sulfoxide/Tween® 80.
After 24 hours, the plants were contaminated by spraying the leaves with an aqueous suspension of Alternaria brassicae spores. The contaminated radish or cabbage plants were incubated for 6 days at 20° C. and at 100% relative humidity.
The test was evaluated 6 days after the inoculation. 0% means an efficacy which corresponds to that of the control plants while an efficacy of 100% means that no disease was observed.

Regarding `Cc1ccc(C(F)(F)CNC(=O)c2cc(I)nnc2Oc2cccc(C(F)(F)F)c2)c(C)c1` [I-461, N-[2-(2,4-dimethylphenyl)-2,2-difluoro-ethyl]-6-iodo-3-[3-(trifluoromethyl)phenoxy]pyridazine-4-carboxamide], the inhibition at 20 ppm in experiment [1] and in experiment [4] was 90 to 100% throughout. Further, the pest or weed control at 500 ppm was in the range of 90 to 100% in experiment [2], 80 to 89% in experiment [3], 90 to 100% in experiment [5] and 90 to 100% in experiment [6].
In the case of `Cc1ccc(CCNC(=S)c2cc(C)nnc2Oc2cccc(C(F)(F)F)c2)c(C)c1` [I-094, N-[2-(2,4-dimethylphenyl)ethyl]-6-methyl-3-[3-(trifluoromethyl)phenoxy]pyridazine-4-carbothioamide], the inhibition at 20 ppm in experiment [1] fell in the range of 90 to 100%; in experiment [4], 80 to 89%. In addition, the pest or weed control at 500 ppm lay within 90 to 100% in experiment [2], 80 to 89% in experiment [3], 90 to 100% in experiment [5] and 90 to 100% in experiment [6].
For the compound `Cc1ccc(C(F)(F)CNC(=O)c2c(Oc3cccc(C(F)(F)F)c3)nnc(Cl)c2I)c(C)c1` [I-020, 6-chloro-N-[2-(2,4-dimethylphenyl)-2,2-difluoro-ethyl]-5-iodo-3-[3-(trifluoromethyl)phenoxy]pyridazine-4-carboxamide], the inhibition at 20 ppm in experiment [1] and in experiment [4] was 90 to 100% each time. Moreover, the pest or weed control at 500 ppm is 90 to 100% in experiment [2], 80 to 89% in experiment [3], 90 to 100% in experiment [5] and 90 to 100% in experiment [6].
Consider `CC(=O)c1cc(C(=O)NCC(F)c2ccc(Br)cc2Cl)c(Oc2cccc(C(F)(F)F)c2)nn1` (racemic) [I-605, 6-acetyl-N-[rac-2-(4-bromo-2-chloro-phenyl)-2-fluoro-ethyl]-3-[3-(trifluoromethyl)phenoxy]pyridazine-4-carboxamide], for which the inhibition at 20 ppm in experiment [1] and in experiment [4] was 90 to 100% in each case. For the same compound, the pest or weed control at 500 ppm in experiment [2] fell in the range of 70 to 79%; in experiment [3], 70 to 79%; in experiment [5] it was 90 to 100%; in experiment [6] it was 90 to 100%.
Consider `Cc1ccc(C(F)(F)CNC(=O)c2cc(C)nnc2Oc2cccc(C3CCC3)c2)c(C)c1` [I-564, 3-(3-cyclobutylphenoxy)-N-[2-(2,4-dimethylphenyl)-2,2-difluoro-ethyl]-6-methyl-pyridazine-4-carboxamide], for which the inhibition at 20 ppm in experiment [1] fell in the range of 70 to 79%; in experiment [4], 90 to 100%. For the same compound, the pest or weed control at 500 ppm in experiment [2] lay within 90 to 100%; in experiment [5], 80 to 89%; in experiment [6] it was 80 to 89%.
In the case of `CSc1cc(C(=O)NCC(F)(F)c2ccc(C)cc2C)c(Oc2cccc(C(F)(F)F)c2)nn1` [I-767, N-[2-(2,4-dimethylphenyl)-2,2-difluoro-ethyl]-6-methylsulfanyl-3-[3-(trifluoromethyl)phenoxy]pyridazine-4-carboxamide], the inhibition at 20 ppm in experiment [1] and in experiment [4] was 90 to 100% throughout. Also, the pest or weed control at 500 ppm in experiment [2] fell in the range of 90 to 100%; in experiment [3], 80 to 89%; in experiment [5], 90 to 100%; in experiment [6] it was 90 to 100%.
For the compound `Cc1ccc(C(F)(F)CNC(=O)c2c(Oc3cccc(C(F)(F)F)c3)nnc(Cl)c2NC2COC2)c(C)c1` [I-408, 6-chloro-N-[2-(2,4-dimethylphenyl)-2,2-difluoro-ethyl]-5-(oxetan-3-ylamino)-3-[3-(trifluoromethyl)phenoxy]pyridazine-4-carboxamide], the inhibition at 20 ppm in experiment [1] and in experiment [4] was 90 to 100% in each case. Further, the pest or weed control at 500 ppm in experiment [2] was in the range of 90 to 100%; in experiment [3] it was 70 to 79%; in experiment [5] it was 90 to 100%; in experiment [6], 90 to 100%.
In the case of `Cc1cc(C2CC2)ccc1C(F)(F)CNC(=O)c1cc(Cl)nnc1Oc1cccc(C(F)(F)F)c1` [I-240, 6-chloro-N-[2-(4-cyclopropyl-2-methyl-phenyl)-2,2-difluoro-ethyl]-3-[3-(trifluoromethyl)phenoxy]pyridazine-4-carboxamide], the inhibition at 20 ppm in experiment [1] and in experiment [4] was 90 to 100% throughout. The pest or weed control at 500 ppm was in the range of 90 to 100% in experiment [2], 70 to 79% in experiment [3], 90 to 100% in experiment [5] and 90 to 100% in experiment [6].
Regarding `COC(=O)N(CC(F)(F)c1ccc(C)cc1C)C(=O)c1cc(Cl)nnc1Oc1cccc(C(F)(F)F)c1` [I-335, methyl N-[6-chloro-3-[3-(trifluoromethyl)phenoxy]pyridazine-4-carbonyl]-N-[2-(2,4-dimethylphenyl)-2,2-difluoro-ethyl]carbamate], the inhibition at 20 ppm in experiment [1] lay in the range of 80 to 89%; in experiment [4] it was 70 to 79%. Also, the results for the pest or weed control at 500 ppm in experiment [2], in experiment [5] and in experiment [6] were 90 to 100%, 80 to 89% and 80 to 89%, respectively.
Turning to `Cc1ccc(C(F)(F)CNC(=O)c2cc(Cl)nnc2Oc2cccc(C(F)(F)F)c2)c(C)c1` [I-014, 6-chloro-N-[2-(2,4-dimethylphenyl)-2,2-difluoro-ethyl]-3-[3-(trifluoromethyl)phenoxy]pyridazine-4-carboxamide], the inhibition at 20 ppm in experiment [1] and in experiment [4] was 90 to 100% each time. Besides, the pest or weed control at 500 ppm was in the range of 90 to 100% in experiment [2], 70 to 79% in experiment [3], 90 to 100% in experiment [5] and 90 to 100% in experiment [6].
On to `CCc1c(Cl)nnc(Oc2cccc(C(F)(F)F)c2)c1C(=O)NCC(F)(F)c1ccc(Cl)cc1` [I-254, 6-chloro-N-[2-(4-chlorophenyl)-2,2-difluoro-ethyl]-5-ethyl-3-[3-(trifluoromethyl)phenoxy]pyridazine-4-carboxamide], for which the inhibition at 20 ppm in experiment [1] and in experiment [4] was 90 to 100% each time. The pest or weed control at 500 ppm in experiment [2], in experiment [5] and in experiment [6] was 90 to 100% each time.
On to `O=C(NCC(F)(F)c1ccc(Br)cc1Cl)c1cc(Cl)nnc1Oc1cccc(F)c1F` [I-530, N-[2-(4-bromo-2-chloro-phenyl)-2,2-difluoro-ethyl]-6-chloro-3-(2,3-difluorophenoxy)pyridazine-4-carboxamide], for which the inhibition at 20 ppm in experiment [1] and in experiment [4] was 90 to 100% throughout. The pest or weed control at 500 ppm in experiment [2] was 90 to 100%; in experiment [3] it was 70 to 79%; in experiment [5], 90 to 100%; in experiment [6], 90 to 100%.

As a reminder, the inhibition is the relative decrease from the control value, in per cent.

The values above are taken from patent publication US12414565B2, “Pyridazine (THIO)amides as fungicidal compounds” (Bayer Aktiengesellschaft, priority 2018, dated 2025).
